{"source": "patent US20220118117A1", "about": "“MODULATORS OF METABOTROPIC GLUTAMATE RECEPTOR 4” (The General Hospital Corporation, priority 2019, published 2022)", "key": {"[1]": {"test": "plasma protein binding, ultrafiltration assay using [18F]15", "assay_type": "in vitro ADME", "conditions": "human plasma", "protocol": "Plasma Protein Binding Assay. An aliquot of radiolabeled compound [^18F]15 in saline (10 μL, 74 kBq) was added to a sample of human plasma (0.5 mL). The mixture was gently mixed by repeated inversion and incubated for 10 min at room temperature. Following incubation, a small sample (10 μL) was removed to determine the total radioactivity in the plasma sample (AT; AT=Abound+Aunbound). The upper part of the Centrifree tube was discarded, and an aliquot (10 μL) from the bottom part of the tube was removed to determine the amount of unbound radioactivity (Aunbound) that passed through the membrane (molecular weight cutoff 30 kD). The radioactivity of each sample was measured using PerkinElmer Wizard2 2480 gamma-counter. Plasma protein binding was derived by the following equation: % unbound=Aunbound×100/AT.\nAs the PET tracer is delivered into the bloodstream, it can bind to albumin, α1-acid glycoprotein and lipoproteins. Plasma protein binding reduces the free drug in the bloodstream and inhibits BBB penetration to reach the brain target. (Ref 44) The PPB value was obtained with an ultrafiltration assay by using [^18F]15. […] These pharmacological properties along with other molecular properties such as MW, tPSA and HBO are in the range normally considered favorable for a PET ligand."}, "solution stability": {"test": "solution stability", "assay_type": "physicochemical", "protocol": "Three pH values, 5, 7.4 and 9.4 were selected to check the solution stability. Aqueous solutions with different pH values were established using the following buffers: sodium acetate-KCl—HCl buffer (20 mM, pH 5.0), phosphate buffer (20 mM, pH 7.4), and boric acid-KCl—NaOH buffer (20 mM, pH 9.4). 891 μL of each pH buffer was placed in different tubes. 9 μL (1 mM) of the sample stock (4, 13, 15 and Diltiazem) was transferred to a particular buffer tube and mixed just before the time 0 min. The mixture was vortexed and incubated at 37° C. After the incubation at the different time points (0, 15, 30, 60, and 120 min), aliquots of 50 μL samples were quenched with 100 μL of ice-cold acetonitrile with 25 μM internal reference, respectively, and analyzed by HPLC. The percentage of the remaining intact compound was calculated by (peak area at the specific time point)/(peak area at 0 min)×100. Every sample was assayed three times."}}, "data": [{"smiles": "[2H]C([2H])(F)Sc1cc(NC(=O)c2ccccn2)ccc1Cl", "note": "[Compound 15, N-(4-Chloro-3-((fluoromethyl-d2)thio)phenyl)picolinamide]", "values": [{"measurement": "PPB (plasma protein binding)", "setting": "[1]", "result": 93.1, "unit": "%"}, {"measurement": "The solution stability, The intact ± SEM at 120 min (%)", "setting": "solution stability; pH = 5.0, 37° C.", "result": "87.1 ± 0.9", "unit": "%"}, {"measurement": "The solution stability, The intact ± SEM at 120 min (%)", "setting": "solution stability; pH = 7.4, 37° C.", "result": "88.3 ± 1.9", "unit": "%"}, {"measurement": "The solution stability, The intact ± SEM at 120 min (%)", "setting": "solution stability; pH = 9.4, 37° C.", "result": "84.3 ± 1.8", "unit": "%"}]}]}
